Patent US20200368211A1, “INHIBITION OF GAMMA-GLUTAMYLTRANSFERASE AND GLUTATHIONE CATABOLISM TO ENHANCE THE EFFICACY OF NF-KB SIGNALLING PATHWAY INHIBITORS” (UNIVERSITAET HEIDELBERG, priority 2017, published 2020)
Where two headings read alike, the source gives them in different places.

Assays:
Type in all cases: cell-based, human
MEC1 cells [1] = assay: Intracellular ROS/superoxide detection by flow cytometry, MEC1 cells; conditions: 10% FCS (OU749 100 μM) and 10% HS (OU749 200 μM); sorafenib 10 μM
Experimental: (§1) Intracellular ROS/superoxide levels were assessed by the ROS/superoxide Detection Assay Kit (ab139476, Abcam, Cambridge, UK) according to the manufacturer's protocol.
(§2) Cells were incubated with OU749 for 10 minutes prior to addition of serum or albumin (FCS or HS, both 10%, BSA or different HSA preparations as indicated), or albumin-supplemented FCS (supplementation with HSA or BSA: final albumin concentration 4-5 mg/ml). The final cell concentration was 1×10^5/ml/tube (volume 1 ml). Mean fluorescence intensities of at least 10000 events were assessed and compared.
(§3) ROS and superoxide levels were assessed by flow cytometry using the cellular ROS/superoxide Detection Assay Kit (ab139476, Abcam, Cambridge, UK) according to the manufacturer's protocol. […] Mean fluorescence intensities of at least 10000 events were assessed and compared.

MOLM13 cells = assay: Intracellular ROS/superoxide detection by flow cytometry, MOLM13 cells; conditions: 10% FCS (OU749 100 μM) and 10% HS (OU749 200 μM); sorafenib 10 nM
Experimental: as §1, §2, §3

MEC1 cells [2] = assay: MTT cell proliferation assay, MEC1 cells
Experimental: For metabolic activity assays, here MTT-assays, cell density was 3×10^4 cells per well (96 well plate). For ROS/superoxide detection assays cell density was 1×10^5 per tube (volume 1 ml). For NF-κB family member activation assays nuclear cell extracts were used (9×10^6 cells/6 ml volume in 6 well plates). The MTT or XTT assay is the most reliable for assessment of cell growth. In principal all assays are based on staining of viable cells after treatment. Cytotoxic effects in cell lines may also be assessed by [^3H] thymidine incorporation (see below). Cell proliferation was assessed by the MTT assay. […] The plates were incubated for 72 h under standard conditions. After addition of 15 μl of a 5 mg/ml MTT solution (MTT; Sigma, Germany) to each well and incubation for another 4 h, 100 μl/well of a 10% sodium dodecyl sulphate solution in 0.01 M hydrochloric acid were added and the plates were incubated overnight under the same conditions (stain development). Subsequently, the absorbance of each well at 540 nm (reference wavelength 690 nm) was recorded with an absorbance plate reader (Sunrise, Tecan, Switzerland). Blank control values (no drug, no cells) were subtracted from the sample values and the means of replicate wells for each drug dilution and the control (cells grown in absence of the drug) were used to calculate the extent of relative cell proliferation (as percentage of the control) and growth inhibition.

HL60 cells = assay: MTT cell proliferation assay, HL60 cells
Experimental: For assessment of cytostatic and/or cytotoxic effects HL60 cells were washed in serum-free RPMI-1640 medium supplemented with 2 mM L-glutamine and 1% penicillin/streptomycin and diluted to 1.25×10^5/ml (logarithmic cell growth). Cells were incubated with OU749 for 10 minutes prior to addition of serum (FCS or HS, both 10%) to washed cells resulting in a density of 1.11×10^5/ml. For MTT-assays cell density was 1×10^4 cells per well (96 well plate).
The MTT or XTT assay is the most reliable for assessment of cell growth. In principal all assays are based on staining of viable cells after treatment. Cytotoxic effects in cell lines may also be assessed by [^3H] thymidine incorporation (see below). Cell proliferation was assessed by the MTT assay. After washing in serum-free medium, pre-incubation with inhibitors of the glutathione catabolism, and addition of defined serum or albumin or serum+albumin concentrations, 90-μl aliquots of the cell suspension (density see above) were dispensed into 96-well flat-bottomed microtitre plates containing 10 μl/well of serial drug dilutions. The plates were incubated for 72 h under standard conditions. After addition of 15 μl of a 5 mg/ml MTT solution (MTT; Sigma, Germany) to each well and incubation for another 4 h, 100 μl/well of a 10% sodium dodecyl sulphate solution in 0.01 M hydrochloric acid were added and the plates were incubated overnight under the same conditions (stain development). Subsequently, the absorbance of each well at 540 nm (reference wavelength 690 nm) was recorded with an absorbance plate reader (Sunrise, Tecan, Switzerland). Blank control values (no drug, no cells) were subtracted from the sample values and the means of replicate wells for each drug dilution and the control (cells grown in absence of the drug) were used to calculate the extent of relative cell proliferation (as percentage of the control) and growth inhibition. Since inhibitors were initially dissolved in DMSO, serial drug dilutions and controls were prepared to finally achieve 0.2% DMSO in all wells (total volume 100 μl); no anti-proliferative effects could be observed at this DMSO concentration in the investigated cell lines.
After washing in serum-free medium cells were diluted to desired density (3.70×10^5/ml for MEC1 and MOLM13, 1.25×10^5/ml for HL60) and HS and FCS was added both in a final concentration of 10%. Then 90-μl aliquots of the cell suspension (densities after addition of serum: 3.33×10^5/ml for MEC1 and MOLM13, 1.1×10^5/ml for HL60) were dispensed into 96-well flat-bottomed microtitre plates containing 10 μl/well of serial drug dilutions of NF-κB inhibitors. The cell concentrations in the 96 well plate were: 3×10^4/well for MEC1 and MOLM13, 1×10^4/well for HL60.
Then 90-μl aliquots of the cell suspension (densities after addition of serum: 3.33×10^5/ml for MEC1 and MOLM13, 1.1×10^5/ml for HL60) were dispensed into 96-well flat-bottomed microtitre plates containing 10 μl/well of serial drug dilutions of NF-κB inhibitors. The cell concentrations in the 96 well plates were: 3×10^4/well for MEC1 and MOLM13, 1×10^4/well for HL60.

[3] = 10% HS, DMSO control, 72 h treatment, read-out: IC50, proliferation of MEC1 cells in HS, DMSO control
[4] = 10% HS, plus 200 μM OU749, 72 h treatment, read-out: IC50, proliferation of MEC1 cells in HS after addition of OU749
[5] = 10% fetal calf serum, 72 h treatment, read-out: IC50, proliferation of MEC1 cells, FCS 10%
[6] = 10% human serum, 72 h treatment, read-out: IC50, proliferation of MEC1 cells, HS 10%
[7] = 10% HS, DMSO control, 72 h treatment, read-out: IC50, proliferation of HL60 cells in HS, DMSO control
[8] = 10% HS, plus 200 μM OU749, 72 h treatment, read-out: IC50, proliferation of HL60 cells in HS after addition of OU749
[9] = 10% fetal calf serum, 72 h treatment, read-out: IC50, proliferation of HL60 cells, FCS 10%
[10] = 10% human serum, 72 h treatment, read-out: IC50, proliferation of HL60 cells, HS 10%
[11] = Homo sapiens, MEC1, 10% HS, DMSO control, 72 h treatment, read-out: IC50, proliferation of MEC1 cells in HS, DMSO control
[12] = Homo sapiens, MEC1, 10% HS, plus 200 μM OU749, 72 h treatment, read-out: IC50, proliferation of MEC1 cells in HS after addition of OU749
[13] = Homo sapiens, MEC1, 10% fetal calf serum, 72 h treatment, read-out: IC50, proliferation of MEC1 cells, FCS 10%
[14] = MEC1, 10% human serum, 72 h treatment, read-out: IC50, proliferation of MEC1 cells, HS 10%
[15] = HL-60, 10% human serum, 72 h treatment, read-out: IC50, proliferation of HL60 cells, HS 10%
[16] = Homo sapiens, HL-60, 10% HS, DMSO control, 72 h treatment, read-out: IC50, proliferation of HL60 cells in HS, DMSO control
[17] = Homo sapiens, HL-60, 10% HS, plus 200 μM OU749, 72 h treatment, read-out: IC50, proliferation of HL60 cells in HS after addition of OU749
[18] = Homo sapiens, HL-60, 10% fetal calf serum, 72 h treatment, read-out: IC50, proliferation of HL60 cells, FCS 10%

IC50 (HL60 cells; [7]) | IC50 (HL60 cells; [8]) | IC50 (HL60 cells; [9]) | IC50 (HL60 cells; [10]) | Structure (SMILES) | Intracellular ROS, NF-κB inhibitor in combination with γ-GT inhibitor, MEC1 (MEC1 cells [1]) | Intracellular ROS, NF-κB inhibitor in combination with γ-GT inhibitor, MOLM13 (MOLM13 cells) | IC50 (MEC1 cells [2]; [3]) | IC50 (MEC1 cells [2]; [4]) | IC50 (MEC1 cells [2]; [5]) | IC50 (MEC1 cells [2]; [6]) | IC50 (MEC1 cells [2]; [11]) | IC50 (MEC1 cells [2]; [12]) | IC50 (MEC1 cells [2]; [13]) | IC50 (MEC1 cells [2]; [14]) | IC50 (HL60 cells; [15]) | IC50 (HL60 cells; [16]) | IC50 (HL60 cells; [17]) | IC50 (HL60 cells; [18])
5.04 ± 0.32 µM | 2.9 ± 0.16 µM | 2.47 ± 0.3 µM | 5.04 ± 0.32 µM | Cc1ccc(S(=O)(=O)/C=C/C#N)cc1 [Bay 11-7082] | increases the levels of intracellular ROS | increases the levels of intracellular ROS | 9.15 ± 1.73 µM | 4.64 ± 0.41 µM | 1.85 ± 0.04 µM | 9.15 ± 1.73 µM | – | – | – | – | – | – | – | –
4.27 ± 0.1 µM | 0.67 ± 0.15 µM | 1.75 ± 0.33 µM | 4.27 ± 0.1 µM | O=C1/C(=C/c2ccccc2F)CNC/C1=C\c1ccccc1F [EF24] | increases the levels of intracellular ROS | increases the levels of intracellular ROS | 13.8 ± 4.93 µM | 1.06 ± 0.25 µM | 1.66 ± 0.44 µM | 13.8 ± 4.93 µM | – | – | – | – | – | – | – | –
– | – | – | – | Cc1oncc1C(=O)Nc1ccc(C(F)(F)F)cc1 [Leflunomide, leflunomide] | increases the levels of intracellular ROS | increases the levels of intracellular ROS | – | – | – | – | 586 ± 29.8 µM | 176 ± 22.1 µM | 72.5 ± 5.12 µM | 586 ± 29.8 µM | 77.1 ± 2.91 µM | 77.1 ± 2.91 µM | 20.3 ± 4.53 µM | 16.3 ± 1.12 µM
– | – | – | – | CNC(=O)c1cc(Oc2ccc(NC(=O)Nc3ccc(Cl)c(C(F)(F)F)c3)cc2)ccn1 [Sorafenib, sorafenib] | increases the levels of intracellular ROS | increases the levels of intracellular ROS | – | – | – | – | 34.2 ± 2.9 µM | 12.7 ± 1.18 µM | 3.03 µM | 34.2 µM | 35.2 ± 10 µM | 35.2 ± 10.3 µM | 9.65 ± 1.06 µM | 1.44 µM
